# Experimental data: the OPERA property sets (Mansouri et al. 2018)
# Conditions: 20 °C
row,SMILES,solubility [mM]
1,CI,97.2
2,CF,667

# Same assay, conditions: 21 °C
row,SMILES,solubility [mM]
1,CC(F)F,48.5

# Same assay, conditions: 25 °C
row,SMILES,solubility [mM]
1,C=C(F)F,197
2,FC(F)=C(F)F,1.58
3,FC(F)(F)Br,2.15
4,FC(Cl)Cl,183
5,BrC(Br)Br,13.8
6,CBr,160
7,FC(F)(F)F,0.214
8,FC(F)(F)C(F)(F)Cl,0.382
9,Clc1ccccc1,4.42
10,ClCCl,153
11,FC(F)Cl,32
12,BrC=CBr,34.7
13,FC(F)F,58.4
14,ClC(Cl)(Cl)Cl,5.16
15,CC(Cl)CCl (stereo not drawn),24.8
